Earlier results as cited in patent US12036321B2, “Compositions and methods for treating or preventing multiple organ dysfunction syndrome” (VIVACELLE BIO, INC., priority 2020, dated 2024).
Like-named read-outs stand apart in the source and are kept apart here.

Tests used:
[1] = Battion et al., J Amer Oil Chem Soc 1968
[2] = test system: Nitric oxide synthase (NOS); conditions: nitric oxide synthase inhibitor, Lopez et al., Crit. Care Med. 2004
human neutrophils = conditions: Simpkins et al., Life Sci 1985

## O=O [Oxygen]
[1]
  solubility of oxygen in lipid relative to water: 4.41 times

## CN=C(N)NCCC[C@H](N)C(=O)O.Cl [546C88]
[2]
  outcome of trial in patients with septic shock: increased mortality and multiple organ failure
[2]; listed as 54C88
  outcome of trial in patients with septic shock: increased mortality

## C=CCN1CC[C@]23c4c5ccc(O)c4O[C@H]2C(=O)CC[C@]3(O)[C@H]1C5 [(+) naloxone]
Human neutrophils
  concentration range that produces anti-inflammatory effect: 10^−5-10^−4 M
